The IC50 is the concentration that inhibits the measured activity by half.

Holding throughout (type): cell-based
One assay deals with MOLT4 cell line. In words: MTS assay with CalcuSyn combination index, leukemia. To be noted: Homo sapiens, MOLT-4, read-out: IC50 (Molar). The procedure:
(§1) These cell lines were cultured in RPMI1640 medium with 10% FBS and 2 mM L-Glutamine. Each cell line was plated in a 96 well plates at 20,000 cell per well.
(§2) Each serial dilution was paired with 4 different concentrations of Idarubicin.
(§3) The plates were incubated for 3 days at 37° C. and 5% CO2. The plates were read using the Promega MTS assay system with MTS being metabolized by living cells turning into formazan which is […] at 490 nm wavelength. This is an indirect measure of cell viability. These were analyzed using the Softmax Pro program which determines cell viability based percent of control wells. This IC50 data was then transferred into the CalcuSyn program for combination index analysis. CalcuSyn compares IC50 the values of the drugs alone with that of the drugs in combination using an algorithm to determine a combination index.

For another assay, the system named is K562 cell line. The description is as above. To be noted: Homo sapiens, K562, read-out: IC50 (Molar). The procedure: as §1, §2, §3
In a further assay the test system is HUT78 cells. Put plainly: MTS assay Example 2, single agents. To be noted: Homo sapiens, read-out: IC50 (Molar). The procedure:
(§4) The day before plating cells all cultures were fed with fresh, complete growth media. On the harvest (plating) day cells were counted by Trypan Blue exclusion staining method.
(§5) Cells were harvested and seeded in 96 well microtiter plates at 15,000 cells per well in 190 μl of media and incubated for 24 hours to allow the cells to attach before drug addition.
(§6) The cytotoxic effect was measured by the MTS Assay (Tetrazolium), which is a colorimetric method for determining the number of viable cells.
(§7) After 72 hours of incubation with tested agents 25 μl of MTS+PMS solution was added to each microtiter well and incubated for 4 hours at 37° C. Plates were then removed from incubator and placed on plate shaker for 5 minutes (covered with aluminum foil for protection from light). Optical densities were read at 490 nm on spectrophotometer plate reader. Data was analyzed as: • 1. Prism (Graphpad) software program was used to normalized the data to control values (100%=cell growth in the absence of agent (drug); 0%=blank control). • 2. Data normalized were plotted as scatter plots.

The test system of the next assay is H9 cells. In words: MTS assay Example 2, single agents. To be noted: Homo sapiens, read-out: IC50 (Molar). The procedure: as §4, §5, §6, §7
The test system of a further assay is HUNS-1 cells. Put plainly: MTS assay Example 2, single agents and combinations. To be noted: HuNS1; HUNS-1, MTS; read-out: IC50 (Molar). The procedure: as §4, §5, §6, §7
(§8) Conversely, antagonism was concluded when inhibition was lower than both maxima. […] Statistical significance was assessed by performing a student's t-test on the inhibition at each dose ratio versus the inhibition at the maximum for each drug.
(§9) As a visual aid, response values were plotted on a scatter plot with dose ratios given on the x-axis and % response values on the y-axis. […] In cases where response values at the two endpoints were approximately equivalent, points lying above or below this predicted line of additivity could be interpreted as representing antagonistic or synergistic drug interaction respectively.

The test system of another assay is RAMOS cells. The assay is described as above. To be noted: Homo sapiens, read-out: IC50 (Molar). The procedure:
as §4, §5, §6, §7, §8, §9

The subject of another assay is MOLT-3 cells. Described as above. To be noted: Homo sapiens; MOLT-3, MTS; read-out: IC50 (Molar). The procedure: as §4, §5, §6, §7, §8, §9
The subject of a further assay is U266B-1 cells. Described as above. To be noted: U266B-1, MTS; read-out: IC50 (Molar). The procedure: as §4, §5, §6, §7, §8, §9
Another assay concerns HL-60 cells. Described as above. To be noted: Homo sapiens; HL-60, MTS; read-out: IC50 (Molar). The procedure:
as §4, §5, §6, §7, §8, §9

For the next assay, the system named is MC116 cells. The description is as above. To be noted: Homo sapiens, read-out: IC50 (Molar). The procedure:
as §4, §5, §6, §7, §8, §9

A further assay relates to K562 cells. Described as above. To be noted: Homo sapiens, read-out: IC50 (Molar). The procedure:
as §4, §5, §6, §7, §8, §9

In a further assay the test system is U937 cells. Described as above. To be noted: Homo sapiens, U-937, read-out: IC50 (Molar). The procedure: as §4, §5, §6, §7, §8, §9
A further assay concerns RPMI 8226 cells. The description is as above. To be noted: Homo sapiens; RPMI 8226, MTS; read-out: IC50 (Molar). The procedure:
as §4, §5, §6, §7, §8, §9

The next assay has as its system NCI-H929 cells. The assay is described as above. To be noted: Homo sapiens, read-out: IC50 (Molar). The procedure:
as §4, §5, §6, §7, §8, §9

Regarding `CC(=O)[C@]1(O)Cc2c(O)c3c(c(O)c2[C@@H](O[C@H]2C[C@H](N)[C@H](O)[C@H](C)O2)C1)C(=O)c1ccccc1C3=O` [Idarubicin], the results for the IC50 in the assay on MOLT4 cell line and in the assay on K562 cell line were 0.05 nM and 63.3 nM, respectively.
With `COc1cc([C@@H]2c3cc4c(cc3[C@@H](O[C@@H]3O[C@@H]5CO[C@@H](C)O[C@H]5[C@H](O)[C@H]3O)[C@H]3COC(=O)[C@H]23)OCO4)cc(OC)c1O` [VP16, etoposide], the IC50 in the assay with HUT78 cells was 1400 nM; in the assay with H9 cells, 730 nM; in the assay with HUNS-1 cells, 3100 nM; with RAMOS cells, 110 nM; with MOLT-3 cells it was 24 nM; with U266B-1 cells, 5900 nM. Besides, the IC50 came to 2000 nM in the assay on HL-60 cells; 230 nM with MC116 cells; 7600 nM with K562 cells; 440 nM in the assay with U937 cells; 370 nM in the assay with RPMI 8226 cells; 2400 nM in the assay with NCI-H929 cells.

The values are drawn from patent publication US8258098B2, “Antitumoral treatments” (Pharma Mar, S.A., priority 2006, dated 2012).
